{
  "source": "patent US7781393B2",
  "about": "“Methods for inhibiting tumor cell growth” (Dana-Farber Cancer Institute, Inc., priority 2004, dated 2010)",
  "key": {"peripheral blood B-cells": {"system": "peripheral blood B-cells", "experiment": "Viability of peripheral blood B-cells", "type": "cell-based, human", "conditions": "0.5 μM", "description": "Primary MM patient samples were freshly isolated from bone marrow aspirates from patients undergoing diagnostic or restaging bone marrow aspirates under an IRB-approved protocol. MM cells were purified using custom-made RosetteSep cocktail of monoclonal antibodies (mAb's) (StemCell Technologies Inc, Vancouver, Canada) for negative selection of CD138^+ MM cells. The CD138^− fraction of the MM cell purification process was cultured in 20% FBS-supplemented media for isolation of the adherent bone marrow stromal cells. Peripheral blood B cells were isolated by ficoll-density centrifugation of peripheral blood samples from MM patients.\nTo assess whether MM cells are more susceptible to inhibition of IGF-1R signaling, than normal cells in their immediate environment, primary MM cells, normal bone marrow stromal cells and peripheral blood B-cells, were exposed to 0.5 μM NVP-AEW541."}, "BM stromal cells (BMSCs)": {"system": "BM stromal cells (BMSCs)", "experiment": "Viability of bone marrow stromal cells (MTT)", "type": "cell-based, human", "conditions": "0.5 μM", "description": "Primary MM patient samples were freshly isolated from bone marrow aspirates from patients undergoing diagnostic or restaging bone marrow aspirates under an IRB-approved protocol. MM cells were purified using custom-made RosetteSep cocktail of monoclonal antibodies (mAb's) (StemCell Technologies Inc, Vancouver, Canada) for negative selection of CD138^+ MM cells. The CD138^− fraction of the MM cell purification process was cultured in 20% FBS-supplemented media for isolation of the adherent bone marrow stromal cells. Peripheral blood B cells were isolated by ficoll-density centrifugation of peripheral blood samples from MM patients. […] […] At the end of each treatment, cells were incubated with 1 mg/ml MTT for 4 hours at 37° C.; a mixture of isopropanol and 1N HCl (23:2, v/v) was then added under vigorous pipetting to dissolve the formazan crystals. Dye absorbance (A) in viable cells was measured at 570 nm, with 630 nm as a reference wavelength. Cell survival was estimated as a percentage of the value of untreated controls. All experiments were repeated at least three times, and each experimental condition was repeated at least in quadruplicate wells in each experiment."}, "MM1S-LucNeo cells": {"system": "MM1S-LucNeo cells", "experiment": "Orthotopic mouse model of multiple myeloma, bioluminescence imaging", "type": "in vivo", "conditions": "50 mg/kg PO BID, after 8 days of treatment, p=0.58", "description": "MM1S-LucNeo cells were created by transducing MM1S cells with a retrovirus encoding the firefly luciferase coding region fused to neomycin phosphotransferase (pMMP-LucNeo). Transduced cells were selected by growth in medium (RPMI, 10% FBS, penicillin/streptomycin) containing G418 at an effective concentration of 1 mg/ml.\nNOD-SCID mice (Jackson Laboratory) were sublethally irradiated with 300 rads from a ^137CS source. Three hours after irradiation, a total of 5×10^6 MM1S-LucNeo cells in mid-logarithmic growth phase were injected via tail vein into each mouse in a volume of 300 μL of PBS. Mice were maintained under sterile conditions.\nBioluminescence imaging was performed with a Xenogen In Vivo Imaging System (IVIS 100). Mice were anesthetized by IP injection of ketamine 150 mg/kg and xylazine 12 mg/kg, and simultaneously D-luciferin 50 mg/kg was administered by IP injection. Imaging was performed 15 minutes after D-luciferin injection with a setting of 2 minutes, and a bin setting of 2. Mice were allowed to recover under isothermic conditions. Mice were imaged weekly beginning 2 weeks after tumor inoculation. Mice with increasing tumor burden were divided into 2 statistically equivalent cohorts, and treatment was started 4 weeks after tumor inoculation. […]"}},
  "data": [
    {"compound": "Nc1ncnc2c1c(-c1cccc(OCc3ccccc3)c1)cn2[C@H]1C[C@@H](CN2CCC2)C1", "note": "[NVP-AEW541]", "values": [
      {"measurement": "viability of peripheral blood B-cells", "setting": "peripheral blood B-cells", "result": "no effect on the viability"},
      {"measurement": "viability of bone marrow stromal cells", "setting": "BM stromal cells (BMSCs)", "result": "no effect on the viability"},
      {"measurement": "body weight", "setting": "MM1S-LucNeo cells", "result": "no difference in body weight"}
    ]}
  ]
}
